Laboratory results: US12286401B2, “Small molecules that sensitize HIV-1 infected cells to antibody dependent cellular cytotoxicity” (THE TRUSTEES OF THE UNIVERSITY OF PENNSYLVANIA, priority 2018, dated 2025)

Experiments:
Format in all cases: cell-based
HIV-1CH58TF [1] = experiment: Virus neutralization in TZM-bl assay; conditions: Human immunodeficiency virus 1; TZM-bl cells; read-out: IC50, inhibition of HIV-1CH58TF infection
Experimental: (§1) To evaluate the direct virus-neutralizing ability of the analogs, I, HIV-1CH58TF was incubated with indicated amounts of different compounds or DMSO for 1 hour at 37° C., then added to TZM-bl cells. After incubation for 48 h at 37° C., luciferase activity was measured. Relative infectivity was calculated as the percentage of the value seen in the absence of compound. To measure the ability of (S)-MCG-IV-210 to sensitize viral particles to neutralization by otherwise non-neutralizing 17b (FIG. 15F), HIV-1CH58TF was incubated with the indicated amounts of 17b in the presence of 0.5 μM (+)-BNM-III-170, 20 μM (S)-MCG-IV-210 or DMSO for 1 hour at 37° C., then added to TZM-bl cells. After incubation for 48 h at 37° C., luciferase activity was measured.
As a positive control, (+)-BNM-III-170 was used, which has been reported to inhibit HIV-1 infection at low micromolar concentrations. See, Melillo, ACS Med Chem Lett 7:330-334. […] While all tested MCG analogs also neutralized HIV-1CH58TF, they did so with only modest potency (FIG. 15E).

[2] = test system: primary CD4 T cells infected with HIV-1CH58TF; experiment: Cell surface staining with A32-AF647 (State 2A, cluster A exposure); conditions: 50 μM compound
Experimental: FIGS. 14A-14D show the data for the cell surface staining with A32-AF647. Cells were then incubated with A32-AF647 together with 5 μg/ml 17b (FIG. 14A, FIG. 14B, 14C) or 1:1000 diluted HIV+ plasma from infected individuals (FIG. 14D) in the presence of DMSO, 50 μM (+)-BNM-III-170 or 50 μM (S)-MCG-IV-210 at 37° C. Mean fluorescence intensity (MFI) of A32-AF647 was measured by flow cytometry. FIG. 14E is a bar graph showing data for the VBE assay, comparing the binding capacity of different Abs, the relative ratio of the luciferase activity to the luciferase activity of 2G12. Data shown are the mean±SD of at least three independent experiments. Statistical significance was evaluated using Mann-Whitney unpaired t test (FIG. 14C) or Wilcoxon paired t test (FIG. 14D) (*, P<0.05; ns, not significant.).
To evaluate whether (S)-MCG-IV-210 was able to stabilize State 2A, primary CD4+ T cells were infected with the primary CH58 transmitted/founder (CH58 TF) virus and evaluated the exposure of the cluster A region with an Alexa-Fluor 647-conjugated A32 (A32-AF647) antibody in the presence or absence of CD4mc and the CoRBS 17b Ab, as reported. See, Richard, 2016, EbioMedicine doi:10.1016/j.ebiom.2016.09.004. […] Mean fluorescence intensity (MFI) of A32-AF647 was measured by flow cytometry. […]

[3] = test system: HIV-1CH58TF Env on virions; experiment: Virus-based ELISA (VBE) virus capture assay
[4] = test system: uninfected bystander CD4+ T cells; experiment: Uninfected bystander CD4+ T cell recognition and ADCC; conditions: 50 μM
Experimental: FIG. 17A is a dot plot showing the ability of HIV+plasma to recognize uninfected bystander cells in the presence of 50 μM (+)-BNM-III-170 or (S)-MCG-IV-210 was evaluated by FACS. FIG. 17B is a dot showing the use of the uninfected eFluor 450+ cells as target cells for ADCC with autologous PBMC and 5 HIV+ plasma in the presence of 50 μM (+)-BNM-III-170 or (S)-MCG-IV-210. Statistical significance was evaluated using a paired t test (*, P<0.05; ****, P<0.0001; ns, not significant).
The capacity of (S)-MCG-IV-210 to protect uninfected bystander CD4+ T cells from ADCC responses was evaluated. Briefly, primary CD4+ T cells were infected with the NL4-3.ADA.GFP WT virus. The cell proliferation dye eFluor-450 was used to stain uninfected autologous CD4+ T cells, which were then added to the infected cells (eFluor-450-cells) and co-cultured for 72 h. The ability of HIV+ plasma to recognize uninfected bystander cells in the presence of 50 μM (+)-BNM-III-170 or (S)-MCG-IV-210 was evaluated by FACS (FIG. 17A). These uninfected eFluor 450+ cells were also used as target cells for ADCC with autologous PBMC and 5 HIV+ plasma in the presence of 50 μM (+)-BNM-III-170 or (S)-MCG-IV-210 (FIG. 17B).

HIV-1CH58TF [5] = experiment: Sensitization of viral particles to neutralization by 17b (TZM-bl); conditions: sub-inhibitory concentrations (20 μM (S)-MCG-IV-210)
Experimental: as §1
Another well-documented antiviral property of CD4mc is their capacity to sensitize viral particles to neutralization by otherwise non-neutralizing antibodies. See, Madani, 2018, Nat. Commun. 9:2363; Madani, 2014, J. Virol. 88:6542-6555; and Madani, 2016, J. Virol., 90:5031-5046. (S)-MCG-IV-210 was tested to determine if this compound shared this property.

Compound: NCCNC(=O)N1CCC[C@H](C(=O)Nc2ccc(Cl)c(F)c2)C1 [(S)-MCG-IV-210]
- IC50 (HIV-1CH58TF [1]): 6.97 µM
- recognition of infected cells by A32-AF647 with addition of 17b ([2]; 5 μg/ml 17b, 37° C.): significantly enhanced
- binding of infected cells by A32-AF647 in the presence of HIV+ plasma ([2]; 1:1000 diluted HIV+ plasma): significantly enhanced binding
- 17b-mediated capture of virions ([3]; 50 μM compound): dramatic increase
- virion capture by the A32 and C11 Cluster A antibodies ([3]; 50 μM compound in combination with 5 μg/ml 17b): permit virion capture
- recognition of bystander cells by HIV+ plasma ([4]; added at the time of co-culture): significantly decreased
- ADCC-mediated killing of uninfected bystander CD4+ T cells ([4]; autologous PBMC and 5 HIV+ plasma): protecting uninfected bystander CD4+ T cells from ADCC-mediating killing
- neutralization by 17b of viral particles sensitized with compound (HIV-1CH58TF [5]): potently neutralized
